Source: the C3SDB collision cross section collection

Details: instrument: DT, single field, calibrated with Agilent tune mix (Agilent)

| Compound | collision cross section (N2) ([M-H]-) [Å²] | collision cross section (N2) ([M+Na]+) [Å²] | collision cross section (N2) ([M+H]+) [Å²] | also measured |
| --- | --- | --- | --- | --- |
| CC(=O)Nc1ccccc1 [N-Phenylacetamide] | 124.17 |  |  |  |
| NC(=O)N[C@@H](CC(=O)O)C(=O)O [N-carbamoyl-L-aspartate] |  | 139.1 |  |  |
| O=C([O-])c1cccnc1 [Nicotinate] |  |  | 124 |  |
| CC[C@H](C)[C@@H]1NC(=O)[C@H](Cc2ccc(O)cc2)NC(=O)[C@@H](N)CSSC[C@@H](C(=O)N2CCC[C@H]2C(=O)N[C@@H](CC(C)C)C(=O)NCC(N)=O)NC(=O)[C@H](CC(N)=O)NC(=O)[C@H](CCC(N)=O)NC1=O [Oxytocin] | 294.98 |  | 303.8 |  |
| CCCCCCCCCCCCCCCC=O [Palmitaldehyde] | 163.36 |  |  |  |
| O=C(O)CNC(=O)Cc1ccccc1 [Phenylacetylglycine] | 147.23 |  |  |  |
| CC1=C(C/C=C(\C)CCC[C@H](C)CCC[C@H](C)CCCC(C)C)C(=O)c2ccccc2C1=O [Phylloquinone] | 211.81 |  | 217.3 |  |
| CC(C)CCCC(C)CCCC(C)CCCC(C)CC(=O)O (centres undefined) [Phytanic acid] | 183.17 |  |  |  |
| CCCCCCCCCCCCCC[C@@H](O)[C@@H](O)[C@@H](N)CO [Phytosphingosine] | 180.68 |  | 196.2 |  |
| CC(C)CCCC(C)CCCC(C)CCCC(C)C(=O)O (centres undefined) [Pristanic acid] | 178.79 | 206.3 |  |  |
| CCCCC[C@H](O)/C=C/[C@H]1[C@H](O)CC(=O)[C@@H]1CCCCCCC(=O)O [Prostaglandin E1] |  | 198.3 |  | collision cross section (N2) ([M-H2O-H]-): 181.94 Å² |
| C=Cc1c(C)c2cc3[nH]c(cc4nc(cc5nc(cc1[nH]2)C(C)=C5CCC(=O)O)C(CCC(=O)O)=C4C)c(C)c3C=C [Protoporphyrin IX] | 245.23 |  | 241.4 |  |
| N#C[C@H](O[C@@H]1O[C@H](CO)[C@@H](O)[C@H](O)[C@H]1O)c1ccccc1 [Prunasin] |  | 173.7 |  |  |
| Cc1ncc(COP(=O)(O)O)c(C=O)c1O [Pyridoxal 5'-phosphate] | 146.34 |  | 151.4 |  |
| O=C(O)C1(O)C[C@@H](O)C(O)[C@H](O)C1 (some centres undefined) [Quinate] | 132.25 | 150.9 |  |  |
| OC[C@@H](O)C(O)[C@@H](O)CO (some centres undefined) [Ribitol] |  | 136.3 |  |  |
| Cc1cn([C@@H]2O[C@H](CO)[C@@H](O)[C@H]2O)c(=O)[nH]c1=O [Ribothymidine] | 153.52 | 165.6 |  |  |
| O=C(/C=C/c1ccc(O)c(O)c1)O[C@H](Cc1ccc(O)c(O)c1)C(=O)O [Rosmarinic Acid] | 170.26 | 195.6 |  |  |
| COc1cc(/C=C/CO)cc(OC)c1O [Sinapyl alcohol] | 146.84 |  |  | collision cross section (N2) ([M+H-H2O]+): 136.5 Å² |
| NCCCNCCCCNCCCN [Spermine] |  |  | 148.2 |  |
| CCCCCCCCCCCCCCC[C@@H](O)[C@@H](N)CO [Sphinganine] |  |  | 188 |  |
| CCCCCCCCCCCCC/C=C/[C@@H](O)[C@@H](N)CO [Sphingosine] |  |  | 186 |  |
| CCCCCCCCCCCCCCCCCC(=O)SCCNC(=O)CCNC(=O)[C@H](O)C(C)(C)COP(=O)(O)OP(=O)(O)OC[C@H]1O[C@@H](n2cnc3c(N)ncnc32)[C@H](O)[C@@H]1OP(=O)(O)O [Stearoyl-CoA] | 301.81 |  | 302.9 |  |
| CNCC(O)c1ccc(O)cc1 (centres undefined) [Synephrine] |  |  |  | collision cross section (N2) ([M+H-H2O]+): 134.4 Å² |
| CCCCCCCCCCCCCCCCCCCCCCCC(=O)O [Tetracosanoic acid] | 197.93 |  |  |  |
| Cc1ncc(C[n+]2csc(CCO)c2C)c(N)n1 [Thiamine] | 160.3 |  | 162.4 |  |
